Columns and labels:
[1] = biological target: T1, human Nav1.7 (Homo sapiens, UniProt Q15858); experiment: Nav 1.7 In Vitro PatchXpress (PX) Assay; type: cell-based; details: HEK 293 cells stably transfected with human Nav1.7; PatchXpress whole cell voltage clamp; partially inactivated state (holding potential yielding 20 to 50% inactivation); read-out: hNav1.7 PX IC50
T1 construct: expressed in transfected cells; host or cells: HEK293
Method: Nav 1.7 In Vitro PatchXpress (PX) Assay
HEK 293 cells stably transfected with human Nav1.7 were recorded in whole cell voltage clamp mode with the PatchXpress automated electrophysiology system (Molecular Devices, LLC, Sunnyvale, Calif.). Compound effects were measured on a partially inactivated state of the sodium channel. Cells were clamped to a holding potential yielding 20 to 50% inactivation. To elicit sodium current, channels were activated by pulsing to −10 mV for 20 msec. This voltage protocol was repeated at a rate of 0.1 Hz throughout the experiment. A single concentration of test compound was applied to cells for a duration of 3 minutes. Peak sodium current was measured at the end of the compound addition period to determine percent inhibition. Three to five cells were tested per concentration, and IC50 curves were fitted to percent inhibition as a function of concentration.

[2] = biological target: T1, human Nav1.7; experiment: Nav 1.7 IWB In Vitro Assay (IonWorks Barracuda); type: cell-based; details: HEK293 cells stably transfected with human Nav 1.7; IonWorks Barracuda population patch-clamp; cells clamped to −20 mV for 4 minutes with compound; 26th pulse; read-out: hNav1.7 IWB IC50
Method: Nav 1.7 IWB In Vitro Assay
HEK293 cells stably transfected with human Nav 1.7 were recorded in population patch-clamp mode with the IonWorks© Barracuda (IWB) automated electrophysiology system (Molecular Devices, LLC, Sunnyvale, Calif.). From a holding potential of −110 mV, sodium currents were elicited by a train of 26 depolarizations of 150 ms duration to −20 mV at a frequency of 5 Hz. Cells were then clamped to −20 mV for a period of 4 minutes in the presence of a single concentration of test compound. Following this compound incubation period, cells were clamped to −110 mV for three seconds to recover unbound channels and put through the same 26 pulse voltage protocol as above. Peak inward current during the 26th pulse to −20 mV in the presence of compound was divided by the peak inward current evoked by the 26th pulse to −20 mV in the absence of compound to determine percent inhibition. Concentration-response curves of percent inhibition as a function of concentration were generated to calculate IC50 values.

T1 sequence (Q15858 whole entry): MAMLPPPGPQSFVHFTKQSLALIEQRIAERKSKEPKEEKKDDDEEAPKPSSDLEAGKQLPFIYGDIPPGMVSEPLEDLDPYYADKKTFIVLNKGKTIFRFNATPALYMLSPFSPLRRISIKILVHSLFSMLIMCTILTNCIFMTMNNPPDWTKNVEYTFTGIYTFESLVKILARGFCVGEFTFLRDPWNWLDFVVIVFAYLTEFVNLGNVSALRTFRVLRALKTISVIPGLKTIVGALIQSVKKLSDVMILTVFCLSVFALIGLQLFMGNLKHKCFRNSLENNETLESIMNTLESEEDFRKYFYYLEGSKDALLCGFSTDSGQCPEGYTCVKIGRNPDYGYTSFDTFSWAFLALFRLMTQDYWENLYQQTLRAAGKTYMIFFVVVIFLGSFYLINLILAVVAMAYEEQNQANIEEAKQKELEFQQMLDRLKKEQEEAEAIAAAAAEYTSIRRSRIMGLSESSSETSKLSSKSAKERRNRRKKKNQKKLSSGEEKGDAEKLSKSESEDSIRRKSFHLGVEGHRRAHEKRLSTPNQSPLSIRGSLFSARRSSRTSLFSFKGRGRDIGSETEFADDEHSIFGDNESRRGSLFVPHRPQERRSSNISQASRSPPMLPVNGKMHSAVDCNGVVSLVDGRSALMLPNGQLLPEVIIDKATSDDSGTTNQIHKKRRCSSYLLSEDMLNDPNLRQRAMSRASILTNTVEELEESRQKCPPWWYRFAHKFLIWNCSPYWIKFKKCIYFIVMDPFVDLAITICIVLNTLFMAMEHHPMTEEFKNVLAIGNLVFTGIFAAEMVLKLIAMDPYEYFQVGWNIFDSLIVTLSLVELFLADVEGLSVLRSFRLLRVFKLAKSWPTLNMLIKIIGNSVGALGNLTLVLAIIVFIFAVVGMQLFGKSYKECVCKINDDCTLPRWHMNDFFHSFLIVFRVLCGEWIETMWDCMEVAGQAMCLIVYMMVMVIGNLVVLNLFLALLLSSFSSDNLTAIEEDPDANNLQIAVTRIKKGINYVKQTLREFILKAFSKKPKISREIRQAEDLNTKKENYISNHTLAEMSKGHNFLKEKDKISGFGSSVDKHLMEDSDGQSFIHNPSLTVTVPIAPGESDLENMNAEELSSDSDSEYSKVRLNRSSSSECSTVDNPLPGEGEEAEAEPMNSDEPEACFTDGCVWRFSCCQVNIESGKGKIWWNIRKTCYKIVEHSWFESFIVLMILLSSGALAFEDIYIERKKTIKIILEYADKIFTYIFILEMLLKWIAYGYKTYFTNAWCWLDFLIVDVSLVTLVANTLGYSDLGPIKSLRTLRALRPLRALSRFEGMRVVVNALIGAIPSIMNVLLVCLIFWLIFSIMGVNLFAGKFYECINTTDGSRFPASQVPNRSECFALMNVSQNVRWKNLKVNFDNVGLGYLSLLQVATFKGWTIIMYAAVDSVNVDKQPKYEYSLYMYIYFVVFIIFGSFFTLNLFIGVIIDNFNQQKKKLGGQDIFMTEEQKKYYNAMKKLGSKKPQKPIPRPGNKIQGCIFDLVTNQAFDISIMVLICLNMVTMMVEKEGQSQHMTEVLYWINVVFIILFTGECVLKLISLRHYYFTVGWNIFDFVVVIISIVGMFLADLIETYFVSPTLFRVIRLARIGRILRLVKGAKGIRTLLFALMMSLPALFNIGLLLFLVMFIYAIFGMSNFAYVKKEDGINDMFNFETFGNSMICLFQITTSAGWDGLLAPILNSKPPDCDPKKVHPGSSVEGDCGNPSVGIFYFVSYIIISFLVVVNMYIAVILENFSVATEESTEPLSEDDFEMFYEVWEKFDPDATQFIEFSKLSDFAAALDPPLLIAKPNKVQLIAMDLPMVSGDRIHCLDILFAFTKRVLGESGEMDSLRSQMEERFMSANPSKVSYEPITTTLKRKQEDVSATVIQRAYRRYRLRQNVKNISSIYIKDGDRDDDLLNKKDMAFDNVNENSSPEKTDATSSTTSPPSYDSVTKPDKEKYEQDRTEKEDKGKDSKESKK

Row | SMILES | IC50 [1] | IC50 [2]
1 | COc1cc(-c2ccc(F)c(C)c2)c(F)cc1-n1c2c(ccc1=O)CN(S(=O)(=O)Nc1ncccn1)CC2 (racemic) [Example 29-(Rac), (Rac)-1-(2,4′-difluoro-5-methoxy-3′-methyl-4-biphenylyl)-2-oxo-N-2-pyrimidinyl-1,5,7,8-tetrahydro-1,6-naphthyridine-6(2H)-sulfonamide] | 1170 nM | 122 nM
2 | COc1cc(-c2ccc(Cl)c(C)c2)c(F)cc1-n1c2c(ccc1=O)CN(S(=O)(=O)Nc1cc(C)ncn1)CC2 (racemic) [Example 40, (Rac)-1-(4′-chloro-2-fluoro-5-methoxy-3′-methyl-4-biphenylyl)-N-(6-methyl-4-pyrimidinyl)-2-oxo-1,5,7,8-tetrahydro-1,6-naphthyridine-6(2H)-sulfonamide] | 204 nM | 42.3 nM
3 | COc1cc(-c2cccc(C(F)(F)F)c2)c(Cl)cc1-n1c2c(ccc1=O)CN(S(=O)(=O)Nc1cccnn1)CC2 (racemic) [Example 91-(Rac), (Rac)-1-(2-chloro-5-methoxy-3′-(trifluoromethyl)-[1,1′-biphenyl]-4-yl)-2-oxo-N-(pyridazin-3-yl)-1,2,7,8-tetrahydro-1,6-naphthyridine-6(5H)-sulfonamide] | 29.9 nM | 11.2 nM
4 | COc1cc(-c2ccc(F)c(C)c2)c(Cl)cc1-n1c2c(ccc1=O)CN(S(=O)(=O)Nc1cccnn1)CC2 (racemic) [Example 92-(Rac), (Rac)-1-(2-chloro-4′-fluoro-5-methoxy-3′-methyl-[1,1′-biphenyl]-4-yl)-2-oxo-N-(pyridazin-3-yl)-1,2,7,8-tetrahydro-1,6-naphthyridine-6(5H)-sulfonamide] | 63.5 nM | 23.6 nM
5 | COc1cc(-c2cc(F)cc(F)c2)c(F)cc1-n1c2c(ccc1=O)[C@@H](C)N(S(=O)(=O)Nc1ccon1)CC2 (single isomer, unassigned) [Example 3-A-M] | > 1000 nM | 2800 nM
6 | COc1cc(-c2cc(F)cc(Cl)c2)ccc1-n1c2c(ccc1=O)CN(S(=O)(=O)Nc1cccnn1)CC2 (single isomer, unassigned) [Example 8-P, P-1-(3′-chloro-5′-fluoro-3-methoxy-4-biphenylyl)-2-oxo-N-3-pyridazinyl-1,5,7,8-tetrahydro-1,6-naphthyridine-6(2H)-sulfonamide] | 241 nM | 25.9 nM
7 | COc1cc(-c2cc(F)cc(F)c2)c(F)cc1-n1c2c(ccc1=O)CN(S(=O)(=O)Nc1ncc(F)cn1)CC2 (single isomer, unassigned) [Example 10-P, P-N-(5-fluoro-2-pyrimidinyl)-2-oxo-1-(2,3′,5′-trifluoro-5-methoxy-4-biphenylyl)-1,5,7,8-tetrahydro-1,6-naphthyridine-6(2H)-sulfonamide] | 644 nM | 52.9 nM
8 | COc1cc(-c2cc(F)cc(F)c2)c(F)cc1-n1c2c(ccc1=O)CN(S(=O)(=O)Nc1ncon1)CC2 (single isomer, unassigned) [Example 17-M, M-N-1,2,4-oxadiazol-3-yl-2-oxo-1-(2,3′,5′-trifluoro-5-methoxy-4-biphenylyl)-1,5,7,8-tetrahydro-1,6-naphthyridine-6(2H)-sulfonamide] | 292 nM | 34.3 nM
9 | COc1cc(-c2cc(F)cc(Cl)c2)c(F)cc1-n1c2c(ccc1=O)CN(S(=O)(=O)Nc1ccon1)CC2 (single isomer, unassigned) [Example 18-M, M-1-(3′-chloro-2,5′-difluoro-5-methoxy-4-biphenylyl)-N-3-isoxazolyl-2-oxo-1,5,7,8-tetrahydro-1,6-naphthyridine-6(2H)-sulfonamide] | 3560 nM | 567 nM

Other lines, results leading:

Row | IC50 [1] | IC50 [2] | SMILES
10 | 1120 nM | 191 nM | COc1cc(-c2cc(F)cc(F)c2)c(F)cc1-n1c2c(ccc1=O)CN(S(=O)(=O)Nc1ncon1)CC2 (racemic) [Example 17-(Rac), (Rac)-N-1,2,4-oxadiazol-3-yl-2-oxo-1-(2,3′,5′-trifluoro-5-methoxy-4-biphenylyl)-1,5,7,8-tetrahydro-1,6-naphthyridine-6(2H)-sulfonamide]
11 | 1680 nM | 199 nM | COc1cc(-c2ccc(F)c(F)c2)c(F)cc1-n1c2c(ccc1=O)CN(S(=O)(=O)Nc1ncccn1)CC2 (racemic) [Example 28-(Rac), (Rac)-2-oxo-N-2-pyrimidinyl-1-(2,3′,4′-trifluoro-5-methoxy-4-biphenylyl)-1,5,7,8-tetrahydro-1,6-naphthyridine-6(2H)-sulfonamide]
12 | 993 nM | 44.3 nM | COc1cc(-c2ccc(Cl)c(C)c2)c(F)cc1-n1c2c(ccc1=O)CN(S(=O)(=O)Nc1ncccn1)CC2 (racemic) [Example 30, (Rac)-1-(4′-chloro-2-fluoro-5-methoxy-3′-methyl-4-biphenylyl)-2-oxo-N-2-pyrimidinyl-1,5,7,8-tetrahydro-1,6-naphthyridine-6(2H)-sulfonamide]
13 | 423 nM | 173 nM | COc1nc(-c2cc(F)cc(Cl)c2)c(F)cc1-n1c2c(ccc1=O)CN(S(=O)(=O)Nc1ccon1)CC2 (racemic) [Example 36, (Rac)-1-(6-(3-chloro-5-fluorophenyl)-5-fluoro-2-methoxy-3-pyridinyl)-N-3-isoxazolyl-2-oxo-1,5,7,8-tetrahydro-1,6-naphthyridine-6(2H)-sulfonamide]
14 | > 1000 nM | 8520 nM | COc1cc(-c2cc(F)cc(F)c2)c(F)cc1-n1c2c(ccc1=O)CN(S(=O)(=O)Nc1ccon1)[C@@H](C)C2 (single isomer, unassigned) [Example 3-C-M]
15 | > 1000 nM | > 30000 nM | COc1cc(-c2cc(F)cc(F)c2)c(F)cc1-n1c2c(ccc1=O)CN(S(=O)(=O)Nc1ccon1)[C@@H](C)C2 (single isomer, unassigned) [Example 3-C-P]
16 | 772 nM | 55 nM | COc1cc(-c2cc(Cl)ccc2C)c(F)cc1-n1c2c(ccc1=O)CN(S(=O)(=O)Nc1ccon1)CC2 (single isomer, unassigned) [Example 9-M, M-1-(5′-chloro-2-fluoro-5-methoxy-2′-methyl-4-biphenylyl)-N-3-isoxazolyl-2-oxo-1,5,7,8-tetrahydro-1,6-naphthyridine-6(2H)-sulfonamide]
17 | 612 nM | 102 nM | COc1cc(-c2cc(F)cc(F)c2)c(F)cc1-n1c2c(ccc1=O)CN(S(=O)(=O)Nc1ncc(F)cn1)CC2 (single isomer, unassigned) [Example 10-M, M-N-(5-fluoro-2-pyrimidinyl)-2-oxo-1-(2,3′,5′-trifluoro-5-methoxy-4-biphenylyl)-1,5,7,8-tetrahydro-1,6-naphthyridine-6(2H)-sulfonamide]
18 | 4500 nM | 849 nM | COc1cc(-c2cc(F)cc(Cl)c2)c(F)cc1-n1c2c(ccc1=O)CN(S(=O)(=O)Nc1ccccn1)CC2 (single isomer, unassigned) [Example 11-M, M-1-(3′-chloro-2,5′-difluoro-5-methoxy-4-biphenylyl)-2-oxo-N-2-pyridinyl-1,5,7,8-tetrahydro-1,6-naphthyridine-6(2H)-sulfonamide]
19 | 7550 nM | 983 nM | COc1cc(-c2cc(F)cc(Cl)c2)c(F)cc1-n1c2c(ccc1=O)CN(S(=O)(=O)Nc1cccc(F)n1)CC2 (single isomer, unassigned) [Example 13-M, M-1-(3′-chloro-2,5′-difluoro-5-methoxy-4-biphenylyl)-N-(6-fluoro-2-pyridinyl)-2-oxo-1,5,7,8-tetrahydro-1,6-naphthyridine-6(2H)-sulfonamide]
20 | 17100 nM | 1940 nM | COc1cc(-c2cccc(OC(F)F)c2)c(F)cc1-n1c2c(ccc1=O)CN(S(=O)(=O)Nc1ccon1)CC2 (single isomer, unassigned) [Example 19-M, M-1-(3′-(difluoromethoxy)-2-fluoro-5-methoxy-4-biphenylyl)-N-3-isoxazolyl-2-oxo-1,5,7,8-tetrahydro-1,6-naphthyridine-6(2H)-sulfonamide]
21 | > 30000 nM | 2670 nM | COc1cc(-c2ccc(F)c(F)c2)c(F)cc1-n1c2c(ccc1=O)CN(S(=O)(=O)Nc1ccon1)CC2 (single isomer, unassigned) [Example 20-M, M-N-3-isoxazolyl-2-oxo-1-(2,3′,4′-trifluoro-5-methoxy-4-biphenylyl)-1,5,7,8-tetrahydro-1,6-naphthyridine-6(2H)-sulfonamide]
22 | 4940 nM | 1550 nM | COc1cc(-c2ccc(C)c(F)c2)c(F)cc1-n1c2c(ccc1=O)CN(S(=O)(=O)Nc1ccon1)CC2 (single isomer, unassigned) [Example 21-M, M-1-(2,3′-difluoro-5-methoxy-4′-methyl-4-biphenylyl)-N-3-isoxazolyl-2-oxo-1,5,7,8-tetrahydro-1,6-naphthyridine-6(2H)-sulfonamide]

Reference: US10472356B2, “Bicyclic ketone sulfonamide compounds” (AMGEN INC., priority 2015, dated 2019)
